From PubChem BioAssay (NCI)
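Assay format: 96-well plates, 48-hour exposure. GI50 is the concentration that inhibits growth by half. TGI denotes the concentration required for complete inhibition of growth.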

What was measured:
Experiment in all cases: inhibition of tumour cell growth, NCI panel, 48 h
EKVX NSCLC = tested on: EKVX NSCLC
HCT-116 colon = tested on: HCT-116 colon
HOP-62 NSCLC = tested on: HOP-62 NSCLC
M14 melanoma = tested on: M14 melanoma
NCI-H226 lung = tested on: NCI-H226 lung
OVCAR-4 ovarian = tested on: OVCAR-4 ovarian
SF-539 CNS = tested on: SF-539 CNS
SK-MEL-28 melanoma = tested on: SK-MEL-28 melanoma
SNB-19 CNS = tested on: SNB-19 CNS
UACC-62 melanoma = tested on: UACC-62 melanoma

Row | SMILES | GI50 (EKVX NSCLC) [µM] | TGI (EKVX NSCLC) [µM] | GI50 (HCT-116 colon) [µM] | TGI (HCT-116 colon) [µM] | GI50 (HOP-62 NSCLC) [µM] | TGI (HOP-62 NSCLC) [µM] | GI50 (M14 melanoma) [µM] | TGI (M14 melanoma) [µM] | GI50 (NCI-H226 lung) [µM] | TGI (NCI-H226 lung) [µM] | GI50 (OVCAR-4 ovarian) [µM] | TGI (OVCAR-4 ovarian) [µM] | GI50 (SF-539 CNS) [µM] | TGI (SF-539 CNS) [µM] | GI50 (SK-MEL-28 melanoma) [µM] | TGI (SK-MEL-28 melanoma) [µM] | GI50 (SNB-19 CNS) [µM] | TGI (SNB-19 CNS) [µM] | GI50 (UACC-62 melanoma) [µM] | TGI (UACC-62 melanoma) [µM]
1 | COc1ccc2[nH]c(=O)c(/C=C/C(=O)/C=C/c3ccc(O)c(OC)c3)cc2c1 | 1.95 | 4.35 | 0.164 | 0.338 | 2.03 | 4.75 | 1.67 | 4.99 | 2.14 | 6.07 | 2.91 | 29.4 | 1.58 | 3.21 | 1.69 | 3.25 | 1.67 | 3.92 | 1.52 | 3.19
2 | CO/N=C(/COc1c(-c2ccccc2)oc2ccccc2c1=O)c1ccc(OC)cc1 | > 100 | > 100 | > 100 | > 100 | > 100 | > 100 | > 100 | > 100 | > 100 | > 100 | 81.4 | > 100 | > 100 | > 100 | > 100 | > 100 |  |  | 53.5 | > 100
3 | CCOC(=O)Cn1c(C)c(/C=N/NC(=O)c2cc3c(ccc4ccccc43)o2)c2ccccc21 | 0.662 | 42.5 | 0.338 | 1.46 | 0.554 | 4.79 | 0.307 | 4.35 | 0.801 | 5.39 | 1.36 | 9.27 | 0.316 | 1.28 | 1.66 | 30.5 | 0.478 | 16.3 | 0.3 | 11
4 | CCOC(=O)c1ccc(Nc2sc(C(=O)c3cccc([N+](=O)[O-])c3)c(N)c2C#N)cc1 | 0.469 | > 75.8 | 0.0505 | 4.17 | 0.108 | 6.39 | 0.213 | 23.9 | 4.67 | 99.5 | 0.612 | 57.1 | 0.0885 | 13.2 | 8.32 | > 59.9 | 0.338 | 18.6 | 0.0789 | 23.4
5 | Nc1ccn(C2CC(O)C(CO)O2)c(=O)n1 (stereo unspecified) | > 5000 | > 5000 | > 5000 | > 5000 | > 5000 | > 5000 | > 5000 | > 5000 | > 5000 | > 5000 | > 5000 | > 5000 | > 5000 | > 5000 | > 5000 | > 5000 | > 5000 | > 5000 | > 5000 | > 5000
6 | C#C[C@@]1(O)[C@@H](CO)O[C@@H](n2ccc3c(N)ncnc32)[C@@H]1O | 1.52 | 5.43 | 0.595 | 10.8 | 2.05 | 7.91 | 1.42 | 3 | 2.05 | 4.85 | 1.97 | 7.79 | 1.9 | 4.44 | 3.99 | 20.2 | 1.62 | 6.61 | 1.79 | 4.48
7 | O=C(O)CCCCCO |  | > 100 |  | > 100 |  | > 100 |  | > 100 |  | > 100 |  | > 100 |  | > 100 |  | > 100 |  | > 100 |  | > 100
8 | NCCCC1NC(=O)/C(=C(O)/C=C/C2CCC[C@@H]2CC2SCCS2)C1=O (stereo partly specified) |  | > 100 |  | > 100 |  | > 100 |  | > 100 |  | > 100 |  | > 100 |  | > 100 |  | > 100 |  | > 100 |  | > 100
9 | C/C1=C\C/C=C(\C)[C@H]2CC(CC/C(C)=C/CC1)[C@@](C)(CO)O2 | > 100 | > 100 | 44.5 | > 100 | 47.6 | > 100 | 71.7 | > 100 | > 100 | > 100 | > 100 | > 100 | > 100 | > 100 | > 100 | > 100 | > 100 | > 100 | 69.2 | > 100
10 | COc1cc2nc(N3CCCC3)nc(Nc3ccccc3)c2cc1OC | 1.88 | 3.53 | 0.58 | 2.44 | 1.93 | 4.2 | 1.83 | 3.56 | 1.97 | 4.12 | 1.43 | 2.8 | 0.56 | 1.84 | 1.76 | 3.18 | 1.65 | 3.14 | 1.73 | 3.23
11 | NC(CSc1nc2ccccn2c1[N+](=O)[O-])C(=O)O (stereo unspecified) |  | > 100 |  | > 100 |  | > 100 |  | > 100 |  | > 100 |  | > 100 |  | > 100 |  | > 100 |  | > 100 |  | > 100
12 | CC1=C(C(=O)CC(=O)C(=O)Nc2ccccc2)Sc2ccccc2N1 |  | > 100 |  | > 100 |  | > 100 |  | > 100 |  | > 100 |  | > 100 |  | > 100 |  | > 100 |  | > 100 |  | > 100
13 | Cc1ccc(N=Nc2c(N)nn(-c3ccccc3)c2N)cc1 | 3.72 | > 100 | 0.542 | > 100 | 2.49 |  | 1.04 | > 100 | 59.4 | > 100 | > 40.7 | > 100 | 1.78 | > 22.8 | 8.97 | > 100 | 6.23 | > 100 | 0.874 | > 100
14 | CCCCCCCCCC1C(C)c2c([nH]c3ccccc23)C2C(=O)N(c3ccccc3)C(=O)C21 (stereo unspecified) |  | > 100 |  | 10.2 |  | 31.2 |  | 28.7 |  | 24.9 |  | 19.1 |  | 40.6 |  | 4.7 |  |  |  | 33.1
